# What was measured:
# [1] = test system: iTreg induction (CD4+FoxP3+ cells); experiment: iTreg induction from CD4+FoxP3- cells with TGF-β (flow cytometry); format: cell-based; conditions: 72 hrs, frequency of CD4+FoxP3+ cells
# Method: (§1) FACS-sorted CD4+FoxP3− cells were plated on anti-CD3-coated plates with soluble IL2 and ant-CD28 with TGF-β (induction) Cell were induced for iTregs with JJ64-B (FIG. 6A) without inhibitor (Induction-IND)) or for 72 hrs. Cells were harvested and the frequency of CD4+FoxP3+ cells was measured by flow cytometry.
# as §1, with “JJ64-C (JJ64 modified drug C or Formula 18) or” for “JJ64-B (FIG. 6A)”
# as §1, with “JJ64-D (JJ64 modified drug D or FIG. 9A) or” for “JJ64-B (FIG. 6A)”
# TC-1 tumor = TC-1 tumor growth and survival, alone or with vaccine; format: in vivo, mouse; conditions: high dose as monotherapy, lower dose combined with vaccine
# Method: (§2) C57BL/6 mice (n=5/group) were injected s.c. in the right flank with 7×10^4 TC-1 cells. Mice from appropriate groups were injected weekly with vaccine (s.c.) or DMSO 5% as a control. Mice were also treated with vaccine (weekly) along with either 10 mg/kg or 20 mg/kg of JJ64-E injected (i.p.) every day starting on day 6 after tumor implantation throughout the experiment.
# FIGS. 5B and 5C are bar diagrams showing average tumor volumes of mice for each group. FIG. 5D is a Kaplan-Meier plot of the overall survival. Statistical significance was determined by Log-rank (Mantel-Cox) test.
# (§3) Statistical significance was determined by one-way ANOVA with Tukey's multiple comparison test (*, p<0.05; **, p<0.01; ***, p<0.001).
# as §2, with “JJ64-C(or FIG. 7A or Formula 18)” for “JJ64-E”, “every other” for “every”
# FIGS. 7C and 7D are bar diagrams representing average tumor volumes of mice for each group. FIG. 7E is a Kaplan-Meier plot of the overall survival. Statistical significance was determined by Log-rank (Mantel-Cox) test.
# CD4+ and CD8+ T cells = experiment: Proliferation (VCT, flow cytometry) of activated CD4+ and CD8+ T cells; format: cell-based, mouse; conditions: 72 hrs, anti-CD3, IL2 and anti-CD28
# Method: (§4) FACS-sorted nTregs, CD4+ and CD8+ T cells from C57BL/6J(foxp3-GFP) were plated on anti-CD3-coated plates and cultured in activation media (IL2 and anti-CD28) without inhibitors (Stimulated) and with inhibitors (JJ64-E) for 72 hrs. For negative control (Non-stimulated-NS) cells were left in media containing IL-2 for 72 hrs. After 72 hrs Proliferation (level of VCT) in live gated cells was measured by flow cytometry.
# nTregs = experiment: Proliferation (VCT, flow cytometry) of activated nTregs; format: cell-based, mouse; conditions: 72 hrs, anti-CD3, IL2 and anti-CD28
# Method: as §4
# [2] = test system: CD8 and other (FoxP3neg) CD4 T cells; experiment: TC-1 tumor model: percentage of CD4 and CD8 T cells by flow cytometry; format: in vivo, mouse; conditions: 5 mg/kg or 10 mg/kg i.p. every day from day 10, analysed day 15
# Method: (§5) WT C57BL/6 4-6 weeks old female mice (n=5/group) were injected s.c. in the right flank with 7×10^4 TC-1 cells. Mice from appropriate groups were treated with either 5 mg/kg or 10 mg/kg of JJ64-E injected (i.p.) everyday starting on day 10 after tumor implantation throughout the experiment. All groups were euthanized on day 15 of TC-1 implantation. The percentage of CD4 and CD8 were analyzed in splenic CD4+ cells by flow cytometry.
# Akt3 = target: T1, Akt3 (Mus musculus, UniProt Q9WUA6); experiment: Immunoblot of pAkt3 in activated nTregs; format: cell-based; conditions: 72 hrs
# T1 construct: nTreg cell lysates prepared on day 3 (72 hrs) of treatment were separated by SDS-PAGE and immunoblotted; endogenous in cells; host or cells: primary mouse nTregs (C57BL/6J foxp3-GFP)
# Method: (§6) FACS-sorted natural regulatory T cells (nTregs), from WT C57BL/6J (foxp3-GFP) mice were plated on anti-CD3-coated plates and cultured in activation media (IL2 and anti-CD28) without inhibitors (Stimulated) and with different concentrations of inhibitor 4-[(6-nitroquinolin-4-yl)amino]-N-[4-(pyridin-4-ylamino)phenyl]benzamide (also referred to as JJ64-E) for 72 hrs. For negative control (Non-stimulated-NS) cells were left in media containing IL-2 for 72 hrs. nTreg cell lysates prepared on day 3 (72 hrs) of treatment were separated by SDS-PAGE and immunoblotted with specific antibodies (pAkt1) or pAkt3; actin was used as loading control.
# Akt1 = target: T2, Akt1 (Mus musculus, UniProt P31750); experiment: Immunoblot of pAkt1 in activated nTregs; format: cell-based; conditions: 72 hrs
# T2 construct: endogenous in cells; host or cells: primary mouse nTregs (C57BL/6J foxp3-GFP)
# Method: as §6
# Tregs (CD4+Foxp3+) = experiment: TC-1 tumor model: percentage of Tregs by flow cytometry; format: in vivo, mouse; conditions: 5 mg/kg or 10 mg/kg i.p. every day from day 10, analysed day 15
# Method: as §5, with “C57BL/6J” for “C57BL/6 4-6 weeks old female”, “(n=3/group)” for “(n=5/group)”, “every day” for “everyday”, “Tregs (CD4+Foxp3+) was” for “CD4 and CD8 were”, “analyzed” for “analyzed in splenic CD4+ cells”
# as §3
# [3] = JJ64-C i.p. every other day from day 6
# [4] = JJ64-E i.p. every day from day 6
# T1 sequence (Q9WUA6 whole entry): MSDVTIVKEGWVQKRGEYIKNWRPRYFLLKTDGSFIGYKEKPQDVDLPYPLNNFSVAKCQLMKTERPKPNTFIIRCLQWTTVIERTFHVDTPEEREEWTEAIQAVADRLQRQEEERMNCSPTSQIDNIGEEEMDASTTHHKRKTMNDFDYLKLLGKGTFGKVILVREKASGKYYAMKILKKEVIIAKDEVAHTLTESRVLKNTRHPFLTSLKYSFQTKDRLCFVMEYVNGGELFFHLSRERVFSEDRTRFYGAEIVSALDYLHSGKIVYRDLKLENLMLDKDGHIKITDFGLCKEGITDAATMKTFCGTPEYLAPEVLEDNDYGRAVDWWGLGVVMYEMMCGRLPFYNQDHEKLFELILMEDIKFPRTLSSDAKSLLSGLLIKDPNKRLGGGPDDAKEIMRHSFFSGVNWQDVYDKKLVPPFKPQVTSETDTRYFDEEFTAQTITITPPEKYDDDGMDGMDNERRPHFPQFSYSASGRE
# T2 sequence (P31750 whole entry): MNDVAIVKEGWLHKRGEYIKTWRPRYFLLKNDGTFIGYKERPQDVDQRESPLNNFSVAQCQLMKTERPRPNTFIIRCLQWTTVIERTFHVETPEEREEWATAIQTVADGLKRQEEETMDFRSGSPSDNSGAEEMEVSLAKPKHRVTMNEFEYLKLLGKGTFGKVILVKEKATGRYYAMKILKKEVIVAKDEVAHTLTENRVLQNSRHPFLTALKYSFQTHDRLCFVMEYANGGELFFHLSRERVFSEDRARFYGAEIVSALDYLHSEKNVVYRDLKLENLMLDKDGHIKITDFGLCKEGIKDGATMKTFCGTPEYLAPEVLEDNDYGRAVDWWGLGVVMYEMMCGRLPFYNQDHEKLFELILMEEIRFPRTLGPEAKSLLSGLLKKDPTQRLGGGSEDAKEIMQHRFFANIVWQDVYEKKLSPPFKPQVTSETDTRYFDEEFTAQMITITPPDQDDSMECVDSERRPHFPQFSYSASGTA
SMILES,iTreg induction [1],TC-1 tumor growth (TC-1 tumor; [3]),survival of TC-1 tumor mice (TC-1 tumor; [3]),proliferation of CD8 and other CD4 T cells (CD4+ and CD8+ T cells),Treg proliferation (nTregs),CD8 and other (FoxP3neg) CD4 T cells in TC-1 tumor model [2],Akt3 phosphorylation in Tregs (Akt3),TC-1 tumor growth (TC-1 tumor; [4]),survival of TC-1 tumor mice (TC-1 tumor; [4]),Akt1 phosphorylation in Tregs (Akt1),Tregs in vivo in TC-1 tumor model (Tregs (CD4+Foxp3+))
O=C(Nc1cccc(Nc2ccncc2)c1)c1cccc(Nc2ccnc3ccc(F)cc23)c1 [Compound 18],inhibits,inhibits,prolongs,,,,,,,,
"O=C(Nc1ccc(Nc2ccncc2)cc1)c1ccc(Nc2ccnc3ccc([N+](=O)[O-])cc23)cc1 [Compound 1, 4-[(6-nitroquinolin-4-yl)amino]-N-[4-(pyridin-4-ylamino)phenyl]benzamide]",,,,sparing,selectively inhibits,does not affect,inhibits,inhibits,prolongs,not,decreases
